The values that follow come from patent US8354414B2, “Substituted bicyclic pyrimidines” (Cephalon, Inc, priority 2006, dated 2013).

Broadly, the pIC50 is the IC50 on a negative log10 scale, so that one unit is a factor of ten. For orientation: melting point means the temperature of the solid-liquid transition.

The target in one series is T1, CDK5/GST-p25 (Homo sapiens, UniProt Q00535).
T1 construct: The final construct, encoding for full-length human CDK5; made in house; host or cells: Sf21 insect cells (baculovirus co-infection)
T1 sequence (Q00535 whole entry): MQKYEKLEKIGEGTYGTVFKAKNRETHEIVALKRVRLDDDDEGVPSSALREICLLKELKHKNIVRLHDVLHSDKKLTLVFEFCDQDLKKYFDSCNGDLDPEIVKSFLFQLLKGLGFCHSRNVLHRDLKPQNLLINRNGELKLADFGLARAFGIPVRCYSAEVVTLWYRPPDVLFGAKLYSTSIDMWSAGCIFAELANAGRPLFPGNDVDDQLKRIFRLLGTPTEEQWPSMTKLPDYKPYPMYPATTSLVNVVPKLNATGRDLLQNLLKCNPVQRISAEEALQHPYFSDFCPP
T1 sequence (Q15078 108-307 partner limits assumed): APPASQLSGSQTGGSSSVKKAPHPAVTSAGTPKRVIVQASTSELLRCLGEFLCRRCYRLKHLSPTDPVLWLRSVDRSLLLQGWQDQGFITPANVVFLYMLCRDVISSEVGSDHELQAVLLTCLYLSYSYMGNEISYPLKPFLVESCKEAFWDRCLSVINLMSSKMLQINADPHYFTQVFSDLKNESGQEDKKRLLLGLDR
Kind of series: Inhibition of CDK5/GST-p25 kinase activity (ELISA with time-resolved fluorescence readout). It is filed as biochemical. A digest of the protocol:
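The substrate, GST-Rb(773-928), was immobilised on plates and phosphorylated for 20 min at 37 °C by 2 ng/ml CDK5/GST-p25 in HEPES pH 7.2 with 10 µM ATP and 10 mM MgCl2. Both proteins were human and co-expressed in insect cells. Ser-780 phosphorylation was read by europium time-resolved fluorescence and converted to IC50.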

In a further series the target is T2, His6-GSK-3β (Homo sapiens, UniProt P49841).
T2 construct: made in house; host or cells: Sf21 insect cells (baculovirus)
T2 sequence (P49841 2-419): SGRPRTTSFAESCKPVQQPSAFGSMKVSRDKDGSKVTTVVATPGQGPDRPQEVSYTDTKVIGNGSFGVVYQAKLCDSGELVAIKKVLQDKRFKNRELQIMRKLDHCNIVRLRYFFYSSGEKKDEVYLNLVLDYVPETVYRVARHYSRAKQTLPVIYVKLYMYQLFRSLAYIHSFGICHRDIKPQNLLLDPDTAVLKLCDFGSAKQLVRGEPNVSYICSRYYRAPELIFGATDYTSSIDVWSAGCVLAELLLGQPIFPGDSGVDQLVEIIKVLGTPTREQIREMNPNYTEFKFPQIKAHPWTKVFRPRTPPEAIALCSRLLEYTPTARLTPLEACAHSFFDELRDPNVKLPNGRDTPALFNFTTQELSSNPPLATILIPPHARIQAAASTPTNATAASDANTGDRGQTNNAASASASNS
Kind of series: Inhibition of His6-GSK-3β kinase activity (ELISA-based format, time-resolved fluorescence readout). The conditions noted are these: read-out: GSK3β IC50. The class given is biochemical. In a few lines:
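Plate-bound recombinant GST-Rb substrate was phosphorylated for 30 min at 37° C by baculovirus-expressed His6-GSK-3β (200 ng/ml) at 20 μM ATP, 10 mM MgCl2, 2.5% DMSO. Europium time-resolved fluorescence of anti-phospho-Ser780 Rb signal gave inhibition, fitted to IC50.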
(In an ELISA, binding on a coated surface is turned into a signal by an enzyme label.)

pIC50: −log10 of the molar value. Read-outs that look alike come from different tables or passages of the source.

For `Cl.NCCNc1nc(C2C(=O)Nc3ccc(C(F)(F)F)cc32)c2cn(C3CCCC3)nc2n1` (stereo not drawn) [Example 252, 3-[6-(2-Amino-ethylamino)-2-cyclopentyl-2H-pyrazolo[3,4-d]pyrimidin-4-yl]-5-trifluoromethyl-1,3-dihydroindol-2-one hydrochloride salt], the melting point lay within 290 to 293 °C. This compound showed a pIC50 against CDK5/GST-p25 (class symbols) of 5.52 to 6.52. Also, on His6-GSK-3β (class symbols), the pIC50 was over 6.52.

The compound `N#Cc1ccc2c(c1)C(c1nc(OCCc3cccnc3)nc3nn(C4CCCC4)cc13)C(=O)N2` (stereo not drawn) [Example 164, 3-[2-cyclopentyl-6-(2-pyridin-3-yl-ethoxy)-2H-pyrazolo [3,4-d]pyrimidin-4-yl]-2-oxo-2,3-dihydro-1H-indole-5-carbonitrile] displayed a melting point of 302 to 304 °C. Moreover, the pIC50 against CDK5/GST-p25 (class symbols) is under 5.00. In addition, on His6-GSK-3β (class symbols), the pIC50 is over 6.52.

`O=C1Nc2cc(Cl)ccc2C1c1ncnc2c1cnn2C1CCCC1` (stereo not drawn) [Example 59, 6-Chloro-3-(1-cyclopentyl-1H-pyrazolo[3,4-d]pyrimidin-4-yl)-1,3-dihydro-indol-2-one] yielded a melting point of 288 to 291 °C. In addition, the pIC50 on CDK5/GST-p25 (class symbols) was under 5.00. Besides, the pIC50 on His6-GSK-3β (class symbols) was 5.52 to 6.52.

The compound `CC(=O)NCCNc1nc(C2C(=O)Nc3ccccc32)c2cn(C3CCCC3)nc2n1` (stereo not drawn) [Example 158, 3-(2-cyclopentyl-6-(2-acetylamino-ethylamino)-2H-pyrazolo[3,4-d]pyrimidin-4-yl)-1,3-dihydro-indol-2-one] returned a melting point of 238 to 240 °C. At CDK5/GST-p25 (numeric bounds), this compound gave a negative-log IC50 (pIC50) of under 5.52. For the same compound, the pIC50 on His6-GSK-3β (class symbols) was 5.52 to 6.52.

With `CC(C)Cn1cc2c(C3C(=O)Nc4ccc(Cl)cc43)nc(Cl)nc2n1` (stereo not drawn) [Example 261, 5-Chloro-3-(6-chloro-2-isobutyl-2H-pyrazolo[3,4-d]pyrimidin-4-yl)-1,3-dihydro-indol-2-one], the melting point was 284 °C (dec.). Besides, the pIC50 against CDK5/GST-p25 (class symbols) is under 5.00. Besides, the pIC50 at His6-GSK-3β (numeric bounds) was under 5.52.

`CC(C)Cn1cc2c(C3C(=O)Nc4ccc(Br)cc43)nc(NCCCN3CCOCC3)nc2n1` (stereo not drawn) [Example 265, 5-Bromo-3-[2-isobutyl-6-(3-morpholin-4-yl-propylamino)-2H-pyrazolo [3,4-d]pyrimidin-4-yl]-1,3-dihydro-indol-2-one] came in with a melting point of 271 to 274 °C. The same compound showed a pIC50 against CDK5/GST-p25 (class symbols) of over 6.52. At His6-GSK-3β (class symbols), the pIC50 was over 6.52.

`COCCNc1nc(C2C(=O)Nc3ccc(Br)cc32)c2cn(CCOC)nc2n1` (stereo not drawn) [Example 235, 5-Bromo-3-[2-(2-methoxy-ethyl)-6-(2-methoxy-ethylamino)-2H-pyrazolo [3,4-d]pyrimidin-4-yl]-1,3-dihydro-indol-2-one] had a melting point of over 300 °C. For the same compound, the pIC50 at CDK5/GST-p25 (class symbols) is over 6.52. On His6-GSK-3β (class symbols), the pIC50 is over 6.52.

For the compound `Cn1cc2c(C3C(=O)Nc4ccc(Br)cc43)nc(NCCN)nc2n1` (stereo not drawn) [Example 303, 3-[6-(2-Amino-ethylamino)-2-methyl-2H-pyrazolo [3,4-d]pyrimidin-4-yl]-5-bromo-1,3-dihydro-indol-2-one], the melting point was 260 to 262 °C. The compound further had a pIC50 against CDK5/GST-p25 (class symbols) of over 6.52. In addition, the pIC50 on His6-GSK-3β (class symbols) is 5.52 to 6.52.

Take `CC(=O)NCCNc1nc(C2C(=O)Nc3ccc(C(F)(F)F)cc32)c2cn(C3CCCC3)nc2n1` (stereo not drawn) [Example 163, 3-(2-cyclopentyl-6-(2-acetylamino-ethylamino)-2H-pyrazolo [3,4-d]pyrimidin-4-yl)-5-trifluoromethyl-1,3-dihydro-indol-2-one]: the melting point was over 300 °C. The compound also gave a pIC50 against CDK5/GST-p25 (class symbols) of 5.52 to 6.52. The pIC50 on His6-GSK-3β (class symbols) was over 6.52.

As to `COCCNc1nc(C2C(=O)Nc3ccc(Cl)cc32)c2cn(CC(C)C)nc2n1` (stereo not drawn) [Example 272, 5-Chloro-3-[2-isobutyl-6-(2-methoxy-ethylamino)-2H-pyrazolo[3,4-d]pyrimidin-4-yl]-1,3-dihydro-indol-2-one], the melting point lay in the range of 286 to 289 °C. On CDK5/GST-p25 (class symbols), the pIC50 is over 6.52. Further, the pIC50 at His6-GSK-3β (class symbols) was over 6.52.

`COCCN(CCOC)c1nc(C2C(=O)Nc3ccc(C#N)cc32)c2cn(C3CCCC3)nc2n1` (stereo not drawn) [Example 167, 3-{6-[bis-(2-methoxyethyl)amino]-2-cyclopentyl-2H-pyrazolo[3,4-d]pyrimidin-4-yl}-2-oxo-2,3-dihydro-1H-indole-5-carbonitrile] displayed a melting point of 248.5 to 249 °C. Further, on CDK5/GST-p25 (numeric bounds), the pIC50 is under 5.52. Moreover, at His6-GSK-3β (class symbols), the pIC50 is over 6.52.

In the case of `C=CCNc1nc(C2C(=O)Nc3ccc(C#N)cc32)c2cn(C3CCCC3)nc2n1` (stereo not drawn) [Example 149, 3-(6-Allylamino-2-cyclopentyl-2H-pyrazolo[3,4-d]pyrimidin-4-yl)-2-oxo-2,3-dihydro-1H-indole-5-carbonitrile], the melting point is over 300 °C. This compound also showed a pIC50 at CDK5/GST-p25 (class symbols) of over 6.52. For the same compound, the pIC50 on His6-GSK-3β (class symbols) is over 6.52.

For the compound `CCOCCn1cc2c(C3C(=O)Nc4ccc(Br)cc43)nc(NCCN(C)C)nc2n1` (stereo not drawn) [Example 237, 5-Bromo-3-[6-(2-dimethylamino-ethylamino)-2-(2-ethoxy-ethyl)2H-pyrazolo[3,4-d]pyrimidin-4-yl]-1,3-dihydro-indol-2-one], the melting point is 247 to 251 °C. The pIC50 on CDK5/GST-p25 (class symbols) was over 6.52. Moreover, on His6-GSK-3β (class symbols), the pIC50 is over 6.52.

Consider `N#Cc1ccc2c(c1)C(c1ncnc3[nH]ncc13)C(=O)N2` (stereo not drawn) [Example 109, 2-Oxo-3-(1H-pyrazolo[3,4-d]pyrimidin-4-yl)-2,3-dihydro-1H-indole-5-carbonitrile], for which the melting point was > 300 °C (dec.). Moreover, the pIC50 against CDK5/GST-p25 (class symbols) was over 6.52. The pIC50 at His6-GSK-3β (class symbols) was over 6.52.

In the case of `Cn1ncc2c(C3C(=O)Nc4ccc(Cl)cc43)ncnc21` (stereo not drawn) [Example 86, 5-Chloro-3-(1-methyl-1H-pyrazolo[3,4-d]pyrimidin-4-yl)-1,3-dihydro-indol-2-one], the melting point was over 320 °C. Further, the pIC50 on CDK5/GST-p25 (class symbols) was over 6.52. For the same compound, the pIC50 at His6-GSK-3β (class symbols) was under 5.00.

Regarding `O=C1Nc2ccccc2C1c1ncnc2c1cnn2C1CCCC1` (stereo not drawn) [Example 62, 3-(1Cyclopentyl-1H-pyrazolo[3,4-d]pyrimidin-4-yl)-1,3-dihydro-indol-2-one], the melting point is 228 to 231 °C. On CDK5/GST-p25 (class symbols), this compound showed a pIC50 of under 5.00. In addition, at His6-GSK-3β (numeric bounds), the pIC50 is under 5.52.

Compound `CC(C)Cn1cc2c(C3C(=O)Nc4ccc(Br)cc43)nc(NCCCN(C)C)nc2n1` (stereo not drawn) [Example 269, 5-Bromo-3-[6-(3-dimethylamino-propylamino)-2-isobutyl-2H-pyrazolo [3,4-d]pyrimidin-4-yl]-1,3-dihydro-indol-2-one] had a melting point of 250.5 to 254 °C. For the same compound, the pIC50 against CDK5/GST-p25 (class symbols) was over 6.52. Further, the pIC50 on His6-GSK-3β (class symbols) was over 6.52.

The compound `CC(C)Nc1nc(C2C(=O)Nc3ccccc32)c2cn(C3CCCC3)nc2n1` (stereo not drawn) [Example 245, 3-(2-Cyclopentyl-6-isopropylamino-2H-pyrazolo[3,4-d]pyrimidin-4-yl)-1,3-dihydro-indol-2-one] registered a melting point of 303 to 305 °C. Further, the pIC50 against CDK5/GST-p25 (class symbols) is under 5.00. The pIC50 at His6-GSK-3β (numeric bounds) was under 5.52.

`CCCn1cc2c(C3C(=O)Nc4ccc(Br)cc43)nc(NCCCN(C)C)nc2n1` (stereo not drawn) [Example 198, 5-Bromo-3-[6-(3-dimethylamino-propylamino)-2-propyl-2H-pyrazolo [3,4-d]pyrimidin-4-yl]-1,3-dihydro-indol-2-one] gave a melting point of 286 to 290 °C. This compound showed a pIC50 against CDK5/GST-p25 (class symbols) of over 6.52. The pIC50 on His6-GSK-3β (class symbols) was over 6.52.
